Data: article PMC6928743, “3’-O-Methylorobol Inhibits the Voltage-Gated Sodium Channel Nav1.7 with Anti-Itch Efficacy in A Histamine-Dependent Itch Mouse Model” (International Journal of Molecular Sciences, 2019)

Assays:
Type in all cases: cell-based
Nav1.8 = target: T1, Nav1.8 (Mus musculus, UniProt Q6QIY3); experiment: whole-cell voltage-clamp in ND7/[…] cells transiently expressing mNav1.[…], single concentration […]
T1 construct: gene Scn10a

Nav1.6 = target: T2, Nav1.6 (Homo sapiens, UniProt Q9UQD0); experiment: whole-cell voltage-clamp in CHO cells stably expressing hNav1.[…], single concentration […]
T2 construct: gene SCN8A
T2 sequence (Q9UQD0 whole entry): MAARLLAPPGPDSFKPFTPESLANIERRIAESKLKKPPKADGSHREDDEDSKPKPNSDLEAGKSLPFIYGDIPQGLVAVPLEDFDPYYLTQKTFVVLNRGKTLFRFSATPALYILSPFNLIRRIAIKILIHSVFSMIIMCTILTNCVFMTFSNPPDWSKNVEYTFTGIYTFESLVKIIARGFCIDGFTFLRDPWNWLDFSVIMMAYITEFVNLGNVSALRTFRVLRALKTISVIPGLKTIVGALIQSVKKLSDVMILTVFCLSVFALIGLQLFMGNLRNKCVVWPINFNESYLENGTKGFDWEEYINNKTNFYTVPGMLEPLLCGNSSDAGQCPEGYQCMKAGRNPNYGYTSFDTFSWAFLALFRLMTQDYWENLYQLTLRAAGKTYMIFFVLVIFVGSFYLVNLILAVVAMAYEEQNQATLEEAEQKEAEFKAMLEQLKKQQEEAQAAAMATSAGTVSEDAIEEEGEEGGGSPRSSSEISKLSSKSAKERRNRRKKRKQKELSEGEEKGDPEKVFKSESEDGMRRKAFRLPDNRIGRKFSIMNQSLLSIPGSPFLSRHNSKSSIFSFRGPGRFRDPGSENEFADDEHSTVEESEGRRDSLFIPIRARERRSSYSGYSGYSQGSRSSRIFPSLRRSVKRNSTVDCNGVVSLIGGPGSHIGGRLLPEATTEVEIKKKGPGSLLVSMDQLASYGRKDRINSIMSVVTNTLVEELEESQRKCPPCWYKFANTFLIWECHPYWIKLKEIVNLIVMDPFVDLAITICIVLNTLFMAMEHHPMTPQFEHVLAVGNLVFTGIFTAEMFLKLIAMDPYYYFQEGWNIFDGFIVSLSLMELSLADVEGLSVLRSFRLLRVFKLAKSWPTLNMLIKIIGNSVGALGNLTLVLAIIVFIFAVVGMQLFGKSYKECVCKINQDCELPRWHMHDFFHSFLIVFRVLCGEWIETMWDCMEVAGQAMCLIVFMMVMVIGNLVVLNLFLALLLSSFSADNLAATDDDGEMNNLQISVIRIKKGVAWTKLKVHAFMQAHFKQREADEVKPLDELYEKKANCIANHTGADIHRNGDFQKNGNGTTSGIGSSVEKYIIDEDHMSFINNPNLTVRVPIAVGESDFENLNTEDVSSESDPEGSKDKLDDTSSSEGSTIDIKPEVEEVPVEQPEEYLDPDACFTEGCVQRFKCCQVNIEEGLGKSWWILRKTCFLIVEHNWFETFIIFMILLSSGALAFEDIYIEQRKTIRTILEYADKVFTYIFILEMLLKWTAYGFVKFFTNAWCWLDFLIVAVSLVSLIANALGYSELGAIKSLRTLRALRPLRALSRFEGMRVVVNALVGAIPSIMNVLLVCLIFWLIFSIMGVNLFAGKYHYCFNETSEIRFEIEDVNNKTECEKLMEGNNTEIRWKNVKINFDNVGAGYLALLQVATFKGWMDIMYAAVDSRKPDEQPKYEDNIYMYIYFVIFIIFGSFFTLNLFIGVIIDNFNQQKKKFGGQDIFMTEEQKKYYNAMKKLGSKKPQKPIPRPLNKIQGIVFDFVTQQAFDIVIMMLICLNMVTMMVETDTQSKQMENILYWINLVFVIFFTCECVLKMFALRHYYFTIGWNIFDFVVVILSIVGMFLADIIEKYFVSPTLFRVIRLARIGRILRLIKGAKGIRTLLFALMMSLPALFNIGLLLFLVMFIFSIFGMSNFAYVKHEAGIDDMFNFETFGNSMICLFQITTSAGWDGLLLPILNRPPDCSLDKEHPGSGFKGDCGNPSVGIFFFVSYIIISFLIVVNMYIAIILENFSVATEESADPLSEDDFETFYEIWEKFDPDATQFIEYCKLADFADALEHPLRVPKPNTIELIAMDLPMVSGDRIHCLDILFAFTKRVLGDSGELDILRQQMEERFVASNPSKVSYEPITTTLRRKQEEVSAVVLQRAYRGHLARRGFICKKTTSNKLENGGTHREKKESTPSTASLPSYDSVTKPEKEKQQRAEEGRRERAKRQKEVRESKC

Nav1.7 = target: T3, Nav1.7 (Homo sapiens, UniProt Q15858); experiment: whole-cell voltage-clamp in CHO cells stably expressing hNav1.[…]
T3 construct: gene SCN9A
T3 sequence (Q15858 whole entry): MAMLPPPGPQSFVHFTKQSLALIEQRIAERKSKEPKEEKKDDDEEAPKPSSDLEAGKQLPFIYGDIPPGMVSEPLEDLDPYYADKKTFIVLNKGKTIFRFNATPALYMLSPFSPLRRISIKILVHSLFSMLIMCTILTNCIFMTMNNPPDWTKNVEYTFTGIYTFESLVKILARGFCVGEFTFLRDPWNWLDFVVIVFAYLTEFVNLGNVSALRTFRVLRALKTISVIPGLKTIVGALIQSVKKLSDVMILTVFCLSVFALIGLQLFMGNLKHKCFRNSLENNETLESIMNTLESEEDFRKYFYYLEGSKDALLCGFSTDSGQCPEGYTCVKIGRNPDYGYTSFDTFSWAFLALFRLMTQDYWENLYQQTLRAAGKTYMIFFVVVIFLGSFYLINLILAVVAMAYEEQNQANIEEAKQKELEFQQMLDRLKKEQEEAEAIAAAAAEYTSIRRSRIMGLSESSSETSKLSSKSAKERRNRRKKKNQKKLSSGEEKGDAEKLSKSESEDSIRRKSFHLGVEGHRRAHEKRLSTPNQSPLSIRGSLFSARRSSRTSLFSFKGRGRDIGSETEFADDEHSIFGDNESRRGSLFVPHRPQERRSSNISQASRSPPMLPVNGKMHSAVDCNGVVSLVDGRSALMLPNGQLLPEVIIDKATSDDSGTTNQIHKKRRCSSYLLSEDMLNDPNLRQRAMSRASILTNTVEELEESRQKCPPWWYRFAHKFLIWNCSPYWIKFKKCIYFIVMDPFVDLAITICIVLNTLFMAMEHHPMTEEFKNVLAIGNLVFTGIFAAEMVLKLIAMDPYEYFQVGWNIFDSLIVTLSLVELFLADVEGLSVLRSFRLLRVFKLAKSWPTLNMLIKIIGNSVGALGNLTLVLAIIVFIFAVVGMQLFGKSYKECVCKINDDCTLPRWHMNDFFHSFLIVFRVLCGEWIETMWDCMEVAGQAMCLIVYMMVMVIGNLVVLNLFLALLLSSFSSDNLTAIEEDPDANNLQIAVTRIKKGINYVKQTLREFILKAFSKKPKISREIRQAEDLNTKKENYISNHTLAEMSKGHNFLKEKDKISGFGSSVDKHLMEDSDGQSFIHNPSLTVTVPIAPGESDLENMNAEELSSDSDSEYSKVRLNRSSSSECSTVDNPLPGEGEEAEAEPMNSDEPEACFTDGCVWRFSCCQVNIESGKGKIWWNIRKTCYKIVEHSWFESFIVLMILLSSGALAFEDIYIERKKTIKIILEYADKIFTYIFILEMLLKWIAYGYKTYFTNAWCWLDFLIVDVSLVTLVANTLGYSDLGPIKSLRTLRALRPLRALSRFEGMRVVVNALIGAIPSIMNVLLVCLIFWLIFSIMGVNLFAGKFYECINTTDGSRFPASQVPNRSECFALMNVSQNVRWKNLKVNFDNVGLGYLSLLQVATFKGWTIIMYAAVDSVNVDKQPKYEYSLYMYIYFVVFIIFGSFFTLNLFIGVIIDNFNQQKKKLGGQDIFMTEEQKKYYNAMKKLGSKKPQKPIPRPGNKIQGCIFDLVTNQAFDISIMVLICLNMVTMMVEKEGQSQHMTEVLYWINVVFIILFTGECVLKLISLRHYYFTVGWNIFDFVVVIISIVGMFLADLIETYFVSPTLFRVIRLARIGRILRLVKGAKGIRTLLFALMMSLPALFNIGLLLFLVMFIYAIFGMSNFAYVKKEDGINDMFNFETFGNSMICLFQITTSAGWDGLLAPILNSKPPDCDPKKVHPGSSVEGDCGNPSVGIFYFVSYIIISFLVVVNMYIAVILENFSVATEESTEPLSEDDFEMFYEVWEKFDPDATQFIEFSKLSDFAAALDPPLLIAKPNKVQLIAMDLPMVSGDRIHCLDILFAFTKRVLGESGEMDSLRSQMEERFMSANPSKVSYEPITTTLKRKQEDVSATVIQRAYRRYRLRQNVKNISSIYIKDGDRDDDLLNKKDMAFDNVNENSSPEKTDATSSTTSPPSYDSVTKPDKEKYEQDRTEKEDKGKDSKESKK

Q: What does the source list for COc1cc(-c2coc3cc(O)cc(O)c3c2=O)ccc1O [3’-O-methylorobol]?
A: inhibition at 10 µM (Nav1.8): 23%; inhibition at 10 µM (Nav1.6): 39%; IC50 (Nav1.7): 3.46 µM
